Experimental data: US20140066475A1, “Method For Treating Pruritus” (Euro-Celtique S.A., priority 2012, published 2014)
Where a name gives a salt, the structure may show the parent alone. Marks after values point to notes of the source that are not given here.

Legend:
[1] = test system: adult male CD-1 mice; assay: In vivo itch response assay (Compound 48/80-induced scratching); conditions: for Effect on scratch response: given 20 min before pruritogen Compound 48/80
Experimental: In Vivo Model and Procedures:
An in vivo model was devised and implemented to evaluate the antipruritic activity of compounds in mice. Compound 48/80 (Sigma Chemical), a known pruritogen in mice, was mixed in a 0.9% saline vehicle and administered to various cohorts of adult male CD-1 mice by s.c. injection at the nape of the neck at dosage levels of 12.5, 25, 50 and 100 μg. The saline vehicle alone was used as a control. The mice were monitored visually and scratching bouts were counted over the ensuing 30 minutes.
Next, test benzomorphan Compound #1 (see Examples 1 and 2 above) was given in various doses (Table 3 below) in the rear flank 20 minutes prior to pruritogen injection in the same manner as the Nalfurafine.

[2] = target: T1, kappa opioid receptor (Homo sapiens, UniProt P41145); assay: κ-opioid receptor [35S]GTPγS functional assay; assay type: biochemical; conditions: relative to U69,593; read-out: GTPγS κ Emax [mean ± SEM]
T1 construct: expressed in transfected cells; host or cells: HEK-293
Experimental: Similarly for KOR, the κ GTP Emax (%) is the maximal effect elicited by a compound relative to the effect elicited by the known κ-agonist, U69,593.
κ-Opioid Receptor Functional Assay Procedures:
Functional [^35S]GTPγS binding assays were conducted as follows. Kappa opioid receptor membrane solution was prepared by sequentially adding final concentrations of 0.026 μg/μl kappa membrane protein (in-house), 10 μg/mL saponin, 3 μM GDP and 0.20 nM [^35S]GTPγS to binding buffer (100 mM NaCl, 10 mM MgCl2, 20 mM HEPES, pH 7.4) on ice. The prepared membrane solution (190 μl/well) was transferred to 96-shallow well polypropylene plates containing 10 μl of 20× concentrated stock solutions of agonist prepared in DMSO. Plates were incubated for 30 min at a temperature of about 25° C. with shaking. Reactions were terminated by rapid filtration onto 96-well Unifilter GF/B filter plates (Packard) using a 96-well tissue harvester (Packard) and followed by three filtration washes with 200 μl ice-cold […] (10 mM NaH2PO4, 10 mM Na2HPO4, pH 7.4). Filter plates were subsequently dried at 50° C. for 2-3 hours. Fifty μl/well scintillation cocktail (MicroScint20, Packard) was added and plates were counted in a Packard Top-Count for 1 min/well.

[3] = target: μ-opioid receptor (Homo sapiens, UniProt P35372); assay: μ-opioid receptor [35S]GTPγS functional assay; assay type: biochemical
Text: Measures of a compound's activity at a given receptor are given by GTP Emax and GTP EC50. GTP Emax (%) is the maximal effect elicited by a compound relative to the effect elicited by a standard, known agonist compound. GTP EC50 is the concentration of a compound providing 50% of the maximal response for that compound at a given receptor. For MOR, the μ GTP Emax (%) is the maximal effect elicited by a compound relative to the effect elicited by the standard MOR agonist [D-Ala^2, N-methyl-Phe^4 Gly-ol^5]-enkephalin (a/k/a DAMGO). Generally, the μ GTP Emax (%) value measures the efficacy of a compound to treat or prevent pain or diarrhea.
μ-Opioid Receptor Functional Assay Procedures:
[^35S]GTPγS functional assays were conducted using freshly thawed μ-receptor membranes. Assay reactions were prepared by sequentially adding the following reagents to binding buffer (100 mM NaCl, 10 mM MgCl2, 20 mM HEPES, pH 7.4) on ice (final concentrations indicated): membrane protein (0.026 mg/mL), saponin ([…]), GDP ([…]) and [^35S]GTPγS (0.20 nM; NEN). […] BetaScint scintillation cocktail (Wallac, Turku, Finland) was added (50 μl/well) and plates were counted using a Packard Top-Count for 1 min/well. Data were analyzed using the sigmoidal dose-response curve fitting functions in GraphPad PRISM v. […]

Sequence of μ-opioid receptor (P35372 whole entry, species assumed): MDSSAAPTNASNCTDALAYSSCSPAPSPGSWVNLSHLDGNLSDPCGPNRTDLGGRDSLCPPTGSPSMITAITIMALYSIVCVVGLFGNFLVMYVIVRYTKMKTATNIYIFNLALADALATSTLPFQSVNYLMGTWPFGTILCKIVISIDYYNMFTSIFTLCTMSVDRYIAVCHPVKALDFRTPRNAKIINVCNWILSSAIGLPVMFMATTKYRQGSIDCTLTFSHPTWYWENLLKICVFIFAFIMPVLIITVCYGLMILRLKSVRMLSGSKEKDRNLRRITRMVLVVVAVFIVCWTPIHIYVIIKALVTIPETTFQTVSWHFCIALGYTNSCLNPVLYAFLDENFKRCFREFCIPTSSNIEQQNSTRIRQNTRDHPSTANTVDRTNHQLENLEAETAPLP
T1 sequence (P41145 whole entry): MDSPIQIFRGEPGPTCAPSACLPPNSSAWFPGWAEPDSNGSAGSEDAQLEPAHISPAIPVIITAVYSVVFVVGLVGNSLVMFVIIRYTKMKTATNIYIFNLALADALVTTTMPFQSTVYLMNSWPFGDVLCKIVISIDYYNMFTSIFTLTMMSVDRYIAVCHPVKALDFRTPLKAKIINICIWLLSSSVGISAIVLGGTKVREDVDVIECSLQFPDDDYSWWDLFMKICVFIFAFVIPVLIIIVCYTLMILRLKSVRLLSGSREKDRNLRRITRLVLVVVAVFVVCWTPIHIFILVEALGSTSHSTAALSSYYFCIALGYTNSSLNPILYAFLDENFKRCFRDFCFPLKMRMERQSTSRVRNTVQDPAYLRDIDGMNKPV

Compound	Total # Scratching Bouts in 30 mins (mean ± S.E.M.) ([1]; 0.04 mg/kg s.c. 20 min before Compound 48/80 (0.5 mg/kg))	Effect on scratch response [1]	Total # Scratching Bouts in 30 mins (mean ± S.E.M.) ([1]; 3 mg/kg in rear flank 20 min before Compound 48/80 (0.5 mg/kg))	Total # Scratching Bouts in 30 mins (mean ± S.E.M.) ([1]; 10 mg/kg in rear flank 20 min before Compound 48/80 (0.5 mg/kg))	Total # Scratching Bouts in 30 mins (mean ± S.E.M.) ([1]; 30 mg/kg in rear flank 20 min before Compound 48/80 (0.5 mg/kg))	Emax [2]	EC50 [3]	Emax ([3]; relative to DAMGO, read-out: GTPγS μ Emax [mean ± SEM])
CN(C(=O)/C=C/c1ccoc1)[C@@H]1CC[C@@]2(O)[C@H]3Cc4ccc(O)c5c4[C@@]2(CCN3CC2CC2)[C@H]1O5 [Nalfurafine, Nalfurafine HCl, reference compound]	25.6 ± 7.92^d	dose dependent reduction in scratch response	–	–	–	–	–	–
C=CC[N+]1(C)CCC2(C)c3cc(O)ccc3C[C@@H]1[C@@H]2C.[I-] (stereo partly drawn) [Compound #1]	–	alleviated pruritus by reducing the mean number of scratching bouts	155.8 ± 13.73^a	129.4 ± 16.18^b	70.8 ± 19.74^c	27.3 ± 3.38%	> 20 µM	3.67 ± 1.33%
